In patent US5612356A, “Heterocycle-containing carbonic acid derivatives” (Eisai Co., Ltd., priority 1992, dated 1997):
pIC50: −log10 of the molar value. Each block holds one compound with its values, some of them ahead of it.

Experiments:
[1] = target: T1, retinoic acid receptor (RAR) (Homo sapiens, UniProt P10276); experiment: Receptor binding assay using human promyelocytic leukemia cell HL60 (nuclear extract), inhibition of 3H-all-trans retinoic acid binding to RAR; details: HL60 cell nucleus extract, 4° C., 16 hours
T1 construct: by the use of an extract from HL 60 cell nuclei; endogenous in cells; host or cells: HL60 human promyelocytic leukemia cells, 0.8 M KCl nuclear extract
T1 sequence (P10276 1-462): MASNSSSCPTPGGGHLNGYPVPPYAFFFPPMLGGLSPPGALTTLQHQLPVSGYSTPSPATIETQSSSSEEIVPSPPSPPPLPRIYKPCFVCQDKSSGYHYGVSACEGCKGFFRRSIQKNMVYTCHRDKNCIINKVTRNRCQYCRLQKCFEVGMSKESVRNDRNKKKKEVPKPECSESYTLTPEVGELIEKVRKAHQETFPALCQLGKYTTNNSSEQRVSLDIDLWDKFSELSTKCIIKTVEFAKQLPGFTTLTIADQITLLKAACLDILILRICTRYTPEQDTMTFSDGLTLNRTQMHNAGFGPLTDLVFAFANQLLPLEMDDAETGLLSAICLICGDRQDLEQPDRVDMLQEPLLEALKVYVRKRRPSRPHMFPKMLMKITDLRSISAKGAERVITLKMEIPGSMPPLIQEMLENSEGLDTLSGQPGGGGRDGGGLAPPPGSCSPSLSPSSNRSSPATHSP
Experimental: Receptor binding assay using human promyelocytic leukemia cell, HL60
It has been known that a receptor for all-trans retinoic acid [i.e., retinoic acid receptor (RAR)] is present in the nucleus of HL 60 cell (see Clara Nervi et al., Proc. Natl. Acad. Sci. USA, 86, 5854 (1989)). Therefore, the extent of specific binding of all-trans retionic acid to RAR was determined by the use of an extract from HL 60 cell nuclei; and the ability of each compound to bind to RAR was determined based on the inhibitory activity of the compound against the above specific binding.
The above cell nucleus extract was prepared as follows.
HL 60 cells (5×10^8) were suspended in 15 ml of a solution A [comprising 5 mM of sodium phosphate (pH: 7.4), 10 mM of monothioglycerol,10% (v/v) of glycerol, 1 mM of phenylmethylsulfonyl fluoride (PMSF), 10 μg/ml of aprotinin and 25 μg/ml of leupeptin). The obtained suspension was homogenized with a homogenizer and centrifuged to remove a formed supernatant. The obtained sediment was suspended in 15 ml of a solution B [comprising 10 mM of Tris-HCl (pH: 8.5), 10 mM of monothioglycerol, 10% (v/v) of glycerol, 1 mM of PMSF, 10 μg/ml of aprotinin, 25 μg/ml of leupeptin and 0.8 M of KC1]. The obtained suspension was allowed to stand at 4° C. for one hour and ultracentrifuged (under the conditions of 100,000×g and 4° C. for one hour). The supernatant thus obtained was stored in a state freezed at -80° C. and used as the cell nucleus extract [see Methods in Enzymology, 189: 248).
The receptor binding assay was conducted as follows.
180 μl of the above extract and 10 μl of a dilution of all-trans retionic acid or a compound to be tested were put in each well of a 96-well polypropylene plate, followed by the addition thereto of ^3 H-all-trans retionic acid in an amount of 10 μl/well. The plate was allowed to stand at 4° C. for 16 hours. A solution containing 3% of charcoal and 0.3% of dextran was added to the reaction mixture in the well and the obtained mixture was centrifuged to remove free ^3 H-all-trans retionic acid. The intensity of radiation of the supernatant was determined with a scintillation counter. The extent of specific binding of all-trans retinoic acid to RAR was determined by taking the intensity of radiation, observed when 200-fold excess of all-trans retinoic acid was added, as that of a nonspecific binding, and substracting the intensity of radiation thus taken from that of the one determined above.

HL60 cell = experiment: Antagonism against all-trans retinoic acid in inducing the differentiation of HL60 cell (CD11b-positive cells, flow cytometry); type: cell-based; details: Homo sapiens, HL-60, 120 h, all-trans retinoic acid 30 nM, 5 days
Text: Antagonism against all-trans retinoic acid in inducing the differentiation of HL60 cell
It has been known that a human promyelocytic leukemia cell strain HL60 is differentiated into granulocytic cells in the presence of all-trans retinoic acid (see Breitman, T., Selonick, S., and Collins, S., Proc. Natl. Acad. Sci. USA, 77, 2936(1980)). Generally, a cell forms a specific differentiation antigen on its surface, when it has achieved differentiation. When an HL60 cell is differentiated into a granulocytic cell, CD11b which is an antigen discriminating granulocyte or monocute is formed on the surface of the cell (see Fontana, J. A., Reppuci, A., Durham, J. P., and Mirand, D., Cancer Res. 46, 2469 to 2473 (1986)). The antagonism against the differentiation of HL60 into granulocytic cell which is induced by all-trans retionic acid was studied by utilizing the above phenomenon.
HL60 cells were cultured and maintained in a culture medium prepared by adding 10% of inactivated bovine fetus serum, 1 mM of sodium pyruvate, 50 μM of β-mercaptoethanol, 100 I.U./ml of penicillin and 100 μg/ml of streptomycin to RPMI1640 (a culture medium formulated in Rosewell Park Memorial Institute).
The resulting plate was incubated in an incubator (5% CO2 /air) for 5 days. After the incubation, the cells of each well were recovered into a test tube, followed by the addition thereto of an FITC-labeled monoclonal antibody reactive with CD11b which is an antigen specific to granulocyte or monocute. The resulting cells were immobilized with 0.2% paraformaldehyde. The immobilized cell suspension was examined by flow cytometry for the proportion of CD11b-positive cells in the above HL60 cell group in each well (see Miller, L. J., Schwarting, R., and Springer, T. A., J. Immunol. 137, 2891 to 2900 (1986)).

Compound: CC1(C)CCC(C)(C)c2cc3c(cc21)CCc1c(-c2ccc(C(=O)O)cc2)nn(Cc2ccccc2)c1-3 [Example 4]
pIC50 [1]: > 9.30
pIC50 (HL60 cell): 6.00

Compound: Cn1nc(-c2ccc(C(=O)O)cc2)c2c1-c1cc3c(cc1CC2)C(C)(C)CCC3(C)C [Example 7, 4-(4,5,7,8,9,10-Hexahydro-1,7,7,10,10-pentamethylanthra[2,1-d]pyrazol-3-yl)benzoic acid]
pIC50 [1]: 7.66
pIC50 (HL60 cell): 6.25

Compound: Cn1nc(-c2ccc(C(=O)O)cc2)c2c1-c1cc3c(cc1SC2)C(C)(C)CCC3(C)C [Example 11]
pIC50 [1]: 8.05
pIC50 (HL60 cell): 5.92

Compound: CCn1nc(-c2ccc(C(=O)O)cc2)c2c1-c1cc3c(cc1CC2)C(C)(C)CCC3(C)C [Example 1, 4-(1-Ethyl-4,5,7,8,9,10-hexahydro-7,7,10,10-tetramethylanthra[2,1-d]pyrazol-3yl)benzoic acid]
pIC50 [1]: 8.40
pIC50 (HL60 cell): 6.15

Compound: CC(C)n1nc(-c2ccc(C(=O)O)cc2)c2c1-c1cc3c(cc1CC2)C(C)(C)CCC3(C)C [Example 2]
pIC50 [1]: 7.30
pIC50 (HL60 cell): 5.17

Further lines, results first:

pIC50 [1]: 7.30
pIC50 (HL60 cell): 5.66
Compound: Cn1nc(-c2ccc(C(=O)O)cc2)c2ccc3cc4c(cc3c21)C(C)(C)CCC4(C)C [Example 14, 4-(7,8,9,10-Tetrahydro-1,7,7,10,10-pentamethylanthra-[2,1-d]pyrazol-3-yl)benzoic acid]

pIC50 [1]: 8.05
pIC50 (HL60 cell): 5.14
Compound: CCCCCCCOc1cc2c(cc1/C(C)=C/c1ccc(C(=O)O)cc1)C(C)(C)CCS2(=O)=O [Example R041-5253, reference compound]

pIC50 [1]: 8.38
pIC50 (HL60 cell): 5.57
Compound: CC1(C)CCC(C)(C)c2cc3c(cc21)CCc1c(-c2ccc(C(=O)O)cc2)cn(-c2ccccc2)c1-3 [Example 18]

pIC50 [1]: 9.30
pIC50 (HL60 cell): 6.32
Compound: CC1(C)CCC(C)(C)c2cc3c(cc21)CCc1c(-c2ccc(C(=O)O)cc2)cn(-c2cccnc2)c1-3 [Example 19]

pIC50 [1]: > 9.30
pIC50 (HL60 cell): 6.92
Compound: CC1(C)CCC(C)(C)c2cc3c(cc21)CCc1c(-c2ccc(C(=O)O)cc2)cn(Cc2cccnc2)c1-3 [Example 16, 4-[4,5,7,8,9,10-Hexahydro-7,7,10,10-tetramethyl-1(3-pyridylmethyl)anthra[1,2-b]pyrrol-3-yl]benzoic acid]

pIC50 [1]: 7.59
pIC50 (HL60 cell): 5.42
Compound: CC1(C)CCC(C)(C)c2cc3c(cc21)CCc1c(-c2ccc(C(=O)O)cc2)coc1-3 [Example 106, 4-(4,5,7,8,9,10-Hexahydro-7,7,10,10-tetramethylanthra-[1,2-b]furan-3-yl)benzoic acid]

pIC50 [1]: 7.49
pIC50 (HL60 cell): 4.85
Compound: CCCCCn1cc(-c2ccc(C(=O)O)cc2)c2c1-c1cc3c(cc1CC2)C(C)(C)CCC3(C)C [Example 22]
